The values that follow come from US20100137260A1, “COMPOUND FOR INHIBITING TRPV3 FUNCTION AND USE THEREOF” (Korea University Industry and Academic Collaboration …, priority 2008, published 2010).

SMILES strings stand for the structures.

The test relates to HaCat skin cells. The test is described as follows: Artificial wound recovery (cell migration and proliferation) in HaCat cells (FIG. 3). It is filed as cell-based. Conditions: 12 hours; for Migration and proliferation of HaCaT cells in medium containing camphor: medium containing 4 mM camphor, IPP 10 μM, FPP 1 μM, GPP 10 μM. As to the method: The present inventors drew lines 1 mm deep on the well fully filled with the cells to make artificial wound. The wounded cells were treated with IPP (10 μM), FPP (1 μM) and GPP (10 μM: geranyl pyrophosphate, Biomol, USA) respectively and incubated in a CO2 incubator for 12 hours. The control group was not-treated. The width of recovered wound was measured under microscope and compared with that at the beginning, which was presented as wound recovery rate. All the experiments were performed on DMEM/FBS. Floating cells, which means dead cells, after making wound, were eliminated by using PBS to eliminate variables caused by dead cells. The cells were observed under microscope (×40), and distance was measured by using image analysis program (Meta-flour 7.1 Molecular Devices, USA).

Regarding `CC(C)=CCC/C(C)=C/COP(=O)(O)OP(=O)(O)O` [GPP, geranyl pyrophosphate], the “Migration and proliferation of HaCaT cells in medium containing camphor” value was “inhibitory effect was not observed”.

In the case of `CC(C)=CCC/C(C)=C/CC/C(C)=C/COP(=O)(O)OP(=O)(O)O` [FPP], the “Migration and proliferation of HaCaT cells in medium containing camphor” value is “inhibitory effect was not observed”. In addition, the “Migration and proliferation of HaCat skin cells, compound alone” value (FPP alone (1 μM)) is given as “confirmed the inhibitory effect”.
